Assay: Human HepG2 cell viability assay in 384 well format
Assay type: toxicity, cell-based
Set-up: dose 125 nL, time 70.5 hour; concentration not given beside the values
Conditions: HepG2 cells, read-out: Inhibition
NC(=O)[C@@H]1CN2CCN(C(=O)C3CC3)C[C@@H]2[C@H]1c1ccccc1 gave a cytotoxicity at 70.5 h of -2.24%. Cc1ccc(-c2nc(CN3CCN(C(=O)C4CC4)CC3)cs2)o1 gave a cytotoxicity at 70.5 h of -5.72%. In the case of Cc1cccc(C(=O)N2CCn3cc(CN4CCCCC4)nc3C2)n1, the cytotoxicity at 70.5 h is reported as -10.3%. With Cc1nc(C)c(Cc2nc(C3CC3)n[nH]2)c(=O)[nH]1 the cytotoxicity at 70.5 h was -3.16%. In the case of CCc1noc(CN(C)C(=O)COc2cccc(Cl)c2C)n1, the cytotoxicity at 70.5 h is reported as -6.73%. With CS(=O)(=O)N1CCC2(CC1)COC(COc1cccnc1)C2 (configuration not stated) the cytotoxicity at 70.5 h was -8.18%. Molecule COc1ccc(OC)c(C(O)CNC(=O)Nc2cccnc2OC)c1 (configuration not stated) has a cytotoxicity at 70.5 h of -6.93%. O=C(c1cc(C2CC2)on1)N1CCCC(n2cccn2)C1 (configuration not stated) gave a cytotoxicity at 70.5 h of 23.8%. Molecule CC(C)N1CCO[C@H]2CN(C(=O)c3ccc(N(C)C)cc3)C[C@H]21 has a cytotoxicity at 70.5 h of -2.38%. For Cn1cnnc1C1CCCN(C(=O)c2ccccn2)C1 (configuration not stated), the cytotoxicity at 70.5 h was 16%. Molecule CC(=O)N1CCC(n2nccc2-c2cnc(NCCO)nc2)CC1 has a cytotoxicity at 70.5 h of -9.44%. Molecule CN1CCCN(S(C)(=O)=O)c2cc(F)ccc21 has a cytotoxicity at 70.5 h of -3.48%. Work on CC(C)c1cccc(-n2cc(O)c(C(=O)NCCC(=O)N(C)C)n2)c1 yielded a cytotoxicity at 70.5 h of -6.63%. CCOCCN1CCN(c2ncccc2C#N)CC1CC (configuration not stated) gave a cytotoxicity at 70.5 h of -3.73%. Work on N#Cc1cccc(C(=O)N2CCC(Nc3cccnn3)CC2)c1 yielded a cytotoxicity at 70.5 h of -19.9%. CCNc1cc2c(nn1)CCN(C(=O)C1COc3ccccc3C1)C2 (configuration not stated) gave a cytotoxicity at 70.5 h of -12.3%. Work on COCC(=O)N1CCCC(Cc2cnc(-c3c(C)n[nH]c3C)cn2)C1 (configuration not stated) yielded a cytotoxicity at 70.5 h of 0.347%. Clc1ccc(C2(CNC3=NCCN3)CCCCC2)cc1 gave a cytotoxicity at 70.5 h of 26.8%. With Cc1cnn(CC(=O)NCC2CCN(c3cc(Cl)ccc3C)C2)c1 (configuration not stated) the cytotoxicity at 70.5 h was 6.3%. For CCCc1nc(C(C)(C)NC(=O)C2CC(=O)N(C3CC3)C2)no1 (configuration not stated), the cytotoxicity at 70.5 h was -6.42%. COCCN(C)C(=O)NCCc1coc(-c2ccc(C)cc2)n1 showed a cytotoxicity at 70.5 h of 7.28%. For Cc1cc2n(n1)CC(CNC1CCN(Cc3ccccc3C)CC1)CN2 (configuration not stated), the cytotoxicity at 70.5 h was 5.18%. In the case of CCc1ccc(CN2Cc3nccn3CC(CN3CCOCC3)C2)o1 (configuration not stated), the cytotoxicity at 70.5 h is reported as -5.92%. Work on O=C(NCC1CC1)[C@H]1C[C@H]2OCC[C@H]2N(CCc2ccccc2)C1 yielded a cytotoxicity at 70.5 h of -1.31%. Work on CCOc1cccc2c1OCC(=O)N(c1ccc3c(c1)OCO3)C2 yielded a cytotoxicity at 70.5 h of 14.7%. With CCN1CCc2c(sc3c2C(=O)NC(/C=C/c2ccco2)N3)C1 (configuration not stated) the cytotoxicity at 70.5 h was 43.7%. O=C(NCC1CCCN(Cc2cccc3nonc23)C1)c1ccc[nH]1 (configuration not stated) gave a cytotoxicity at 70.5 h of 3.08%. In the case of CC(C)Oc1ccccc1CNC(=O)N(C)CC(F)F, the cytotoxicity at 70.5 h is reported as -3.01%. Molecule CCn1c(CN2CCC(O)(c3ccc4c(c3)OCO4)CC2)cnc1SC has a cytotoxicity at 70.5 h of 1.92%. CNS(=O)(=O)c1cccc(S(=O)(=O)Nc2ncc(C)s2)c1 showed a cytotoxicity at 70.5 h of 3.06%. For COCC(O)CNC(=O)c1cc(COc2ccc3c(c2)CCCC3)on1 (configuration not stated), the cytotoxicity at 70.5 h was -4.42%. Molecule CC(=O)N1C[C@@H]2CC[C@H](C1)N(Cc1ccc(Cn3cccn3)cc1)C2 has a cytotoxicity at 70.5 h of -19.2%. CO[C@@H]1CO[C@@]2(CCCN(C(=O)N3CCCC3)C2)C1 showed a cytotoxicity at 70.5 h of 0.448%. Molecule O=C(O)c1cc(Br)cnc1OCC1CC1 has a cytotoxicity at 70.5 h of 2.88%. With Cn1cc(N2CC3(CCN(S(C)(=O)=O)C3)CC2=O)cn1 (configuration not stated) the cytotoxicity at 70.5 h was 2.06%. For Cc1ncccc1C(=O)Nc1ccc2ccn(CCN(C)C)c2c1, the cytotoxicity at 70.5 h was -4.81%. For Cc1nc(CN2CCc3cnc(C(C)C)nc3C2)oc1C, the cytotoxicity at 70.5 h was -77.4%. Molecule Cc1nnc(CN(C)CC(=O)N2CCCN(C3CCCC3)CC2)n1C has a cytotoxicity at 70.5 h of -6.96%. For COC[C@]12COC[C@H]1CN(S(=O)(=O)c1cccnc1)C2, the cytotoxicity at 70.5 h was -13%. CCN1CC(O)CN(C(=O)c2cccc(C(F)(F)F)c2)CC1=O (configuration not stated) gave a cytotoxicity at 70.5 h of -4.06%. Molecule Cc1cc(NC(=O)NCCC(=O)N2CCCc3ccccc32)no1 has a cytotoxicity at 70.5 h of -6.7%. In the case of CCCSc1nn(CCN(C)C)c2nc3sc(C)c(CC)c3c(=O)n12, the cytotoxicity at 70.5 h is reported as 32.5%. Cn1c(NCCN2CCCCCC2)c(C#N)c(=O)n(C)c1=O gave a cytotoxicity at 70.5 h of -7.25%. CN(C)c1nc(NCCc2ccnn2C)ncc1F showed a cytotoxicity at 70.5 h of 23.5%. Work on Cc1c(CN(C)C(=O)c2ccnn2C)cnn1C yielded a cytotoxicity at 70.5 h of 6.18%. With CC(C)C(CNC(=O)CCn1cncn1)N1CCc2ccccc2C1 (configuration not stated) the cytotoxicity at 70.5 h was -6.95%. With CCC(C)(C)NC(=O)C[S+]([O-])Cc1csc(C2CCCC2)n1 (configuration not stated) the cytotoxicity at 70.5 h was 11%. With Cc1nn(C)c(N2CCOCC2)c1CNCC1CCS(=O)(=O)C1 (configuration not stated) the cytotoxicity at 70.5 h was -10.2%. Work on O=C(Cc1ccc(F)cc1Cl)N[C@@H]1CCNC[C@H]1O yielded a cytotoxicity at 70.5 h of -6%. Molecule Cc1noc([C@@H]2C[C@H]3CN(Cc4scnc4C)C[C@H]3O2)n1 has a cytotoxicity at 70.5 h of -4.75%. Molecule c1cncc(-c2noc(CNCC3CCCN3c3cccnn3)n2)c1 (configuration not stated) has a cytotoxicity at 70.5 h of -2.21%. In the case of Cc1cccc(CN2CCC3(CCC(C(=O)N(C)C)O3)CC2)n1 (configuration not stated), the cytotoxicity at 70.5 h is reported as -9.32%. Clc1cccc(C(NCc2ncc[nH]2)c2ccccn2)c1 (configuration not stated) showed a cytotoxicity at 70.5 h of 1.18%. With COc1ccccc1OCCn1c(C)c(C)oc1=O the cytotoxicity at 70.5 h was 23.3%. Molecule Cc1ccc(S(=O)(=O)N2CC[C@@H]3C[C@H](NC(=O)c4[nH]ncc4Br)[C@@H]32)cc1 has a cytotoxicity at 70.5 h of -5.6%. For CS(=O)(=O)N1CCCC12CCN(Cc1ccoc1)CC2, the cytotoxicity at 70.5 h was -3.22%. Molecule CN1CCOCC2(CCCN(C(=O)Cc3ccncc3)C2)C1 (configuration not stated) has a cytotoxicity at 70.5 h of -11.6%.
